Measured values as given in US10610517B2, “Compositions and methods for treating neoplastic diseases” (Celgene International II Sàrl, priority 2004, dated 2020).

Assays:
[1] = test system: MM.1S cells; assay: MTT viability of MM.1S cells with or without rhIL-6 or rhIGF-I; format: cell-based, human
Description: Adhesion of MM cells to BMSCs induces IL-6 and IGF-I secretion from BMSCs, which not only regulates the growth of MM cells, but also protects against chemotherapy. See Hardin, J., MacLeod, S., Grigorieva, I., Chang, R., Barlogie, B., Xiao, H. & Epstein, J. (1994) Blood 84, 3063-70 and Chauhan, D., Kharbanda, S., Ogata, A., Urashima, M., Teoh, G., Robertson, M., Kufe, D. W. & Anderson, K. C. […] Thus, whether rhIL-6 or rhIGF-I inhibits apoptosis in MM cells induced by the compound of Formula (II) (X=Cl) was evaluated. […] At 24 h cells were harvested and viability analyzed by MTT assays. […] Median viability was 51±2.1% after treatment with Dex and 92±5.5% for Dex+rhIL-6 (P=0.05, as determined by one-sided Wilcoxon rank-sum test). Results are mean±SD of three independent experiments. […] In contrast and as in other studies, both IL-6 and IGF-I block Dex-induced decreased MM.1S cell viability. See Chauhan, D., Hideshima, T. & Anderson, K. C. (2003) Int J Hematol 78, 114-20 and Mitsiades, C. S., Mitsiades, N., Poulaki, V., Schlossman, R., Akiyama, M., Chauhan, D., Hideshima, T., Treon, S. P., Munshi, N. C., Richardson, P. G. & Anderson, K. C.

[2] = biological target: proteasome β-5, β-1, β-2 subunits in MM.1S cells (Homo sapiens, UniProt P28072+P28074+Q99436); format: cell-based
Description: In vivo determination of proteasome activity was conducted using a competition experiment with Dansyl-Ahx3L3VS, which covalently modifies all active proteasome subunits. This inhibitor contains a dansyl sulfonamide hexanoyl hapten that can be visualized by immunoblotting using antibodies against the dansyl moiety. […] Cells were lysed by incubating them for 30 mins in NP-40 lysis buffer (50 mM Tris-HCl pH 8.0, 150 mM NaCl, 1% NP-40), followed by 5 min. centrifugation to remove membrane fractions, nuclei, and cell debris. […] Blots were developed by enhanced chemiluminescence (Western Lightning, Perkin-Elmer).

[3] = test system: Bax; assay: Immunoblot of Bax in mitochondrial protein extracts; format: cell-based, human; settings: MM.1S cells; FIG. 12E
Description: Immunoblot analysis was performed using antibodies to cytochrome-c, Smac, Caspase-8, -9, or -3 (Cell Signaling, Beverly, Mass.), tubulin (Sigma, St. Louis, Mo.), PARP, Hsp60, or Bax (BD Bioscience Pharmingen, San Diego, Calif.). Blots were developed by enhanced chemiluminesence (ECL; Amersham, Arlington Heights, Ill.).
Previous studies have established that Bax induces mitochondrial apoptotic pathway. See Wei, M. C., Zong, W. X., Cheng, E. H., Lindsten, T., Panoutsakopoulou, V., Ross, A. J., Roth, K. A., MacGregor, G. R., Thompson, C. B. & Korsmeyer, S. J. (2001) Science 292, 727-30 and Lei, K., Nimnual, A., Zong, W. X., Kennedy, N. J., Flavell, R. A., Thompson, C. […] Thus, whether MM cell apoptosis induced by the compound of formula (II) (X=Cl) correlates with alterations in Bax was evaluated. […] Blots are representatives of three independent experiments.

## CC12OC(=O)C1(C(O)C1C=CCCC1)NC(=O)C2CCCl (stereo not shown) [compound of formula (II) (X=Cl)]
[1]; agent + rhIL-6 (10 ng/ml), 24 h (compound 7 nM; Dex 0.5 μM)
  median cell viability: 51.2±3.2%
[1]; agent alone, 24 h (compound 7 nM; Dex 0.5 μM)
  median cell viability: 47±2.3%
[1]; compound 7 nM + rhIGF-I (50 ng/ml), 24 h
  median cell viability: 50.3%±2.0
[2]; 7 nM, 30 mins, 1 h or 3 h, FIG. 4
  dansylAhx3L3VS-labeling of the β-5 subunits: decreases the dansylAhx3L3VS-labeling of the β-5 subunits
[2]; MM.1S cells
  concentration decreasing dansylAhx3L3VS-labeling of the β-1 subunits: 1 nM
  concentration decreasing dansylAhx3L3VS-labeling of the β-2 subunits: 20 nM
[3]
  Bax levels in mitochondria: little, if any increase in Bax levels in mitochondria
